Results: US20070015771A1, “Lonidamine analogs” (Threshold pharmaceuticals, Inc., priority 2004, published 2007)
Like-named read-outs stand apart in the source and are kept apart here.

Key:
PWR-1E cells = test: Antiproliferation assay 3 days, PWR-1E cells (Example 49); format: cell-based; conditions: read-out: PWR1e cell line IC50
Experimental: (§1) To determine the effect of lonidamine analogs thereof on cell proliferation, the antiproliferative activity of these compounds was tested in a multi-well Alamar Blue based assay (at 3 days). Cell growth in the presence and absence of the test compound was compared, as measured by a fluoresence plate reader at excitation 550 nm and emission 590 nm (see Biosource International Inc., Tech Application Notes, Use of Alamar Blue in the measurement of Cell Viability and Toxity, Determining IC50). The following cell lines were tested: PWR-1E cells ((ATCC CRL-11611), 3500 cells/well/200 μl in Keratinocyte SFM medium (Gibco Products, Invitrogen Corporation, Carlsbad, Calif.)); DU-145 cells ((ATCC HTB-81), 4000 cells/well/200 μl in MEM Eagles medium (ATCC, Manassas, Va.)); PC3 cells ((ATCC CRL-1435), 4000 cells/200 μl in Modified HAM's F12 medium (ATCC, Manassas, Va.)); PNt2 cells ((Sigma-Aldrich, 95012613-1 VL), 4000 cells/well/200 μl in RPMI medium (Gibco Products, Invitrogen Corporation, Carlsbad, Calif.), BPH-1 ((DSMZ ACC-143), 4000 cells/well/200 μl in RPMI medium (Gibco Products, Invitrogen Corporation, Carlsbad, Calif), and NCI-H460 cells ((ATCC HTB-177), 4000 cells/well/200 μl in RPMI medium (Gibco Products, Invitrogen Corporation, Carlsbad, Calif.)). The cells were seeded in a 96 well plate in a medium specified above. After 24 hours, these plates were divided into 2 groups—Control group and 3 day treatment group. A test compound was added to each plate in the treatment groups at concentrations of […] as tabulated in Table 1 (in 2 μl 1 of 100% DMSO, final DMSO concentration 1% in all wells). For NCI-H460 cells, test compounds were added to each plate in the treatment groups at concentrations of 600, 300, 100, 30, 10, 3, and 1 μM (in 2 μl of 100% DMSO, final DMSO concentration 1% in all wells). The cells in the 3 day treatment group were incubated for 3 days, followed by staining with AlamarBlue. In the Control group, AlamarBlue was added to the plate at (i) day 0 and (ii) day 3 and measured to establish the control reading. […] For the NCI-H460 cells, the capacity of the cells to proliferate was measured 5 hours after addition of AlamarBlue using the same fluorescence plate reader as stated above.

NCI-H460 cells = test: Antiproliferation assay 3 days, NCI-H460 cells; format: cell-based; conditions: read-out: NCI-H460 cell line IC50
Experimental: as §1

testes = test: 5 day systemic administration in male SH rats, testis; format: in vivo, rat; parameters: inhibition in vivo: dose or concentration left out as unconfirmed; conditions: for Testis shrinkage: male SH rats, oral daily for 5 days at 50 mg/ml, day 6; for inhibition in vivo: Rattus norvegicus, po, 144 h, read-out: Testis shrinkage
[1] = 5 day systemic administration in male SH rats, pharmacokinetic blood samples; format: in vivo, rat; conditions: oral daily for 5 days at 50 mg/ml, blood 2 hours after administration
Experimental: (§2) The effect of test compounds (lonidamine and lonidamine analogs) on the SH rat prostate was determined as follows. The test compound was orally administered daily for 5 days to male, SH rat, (n=6, 14 weeks old, Charles River Labs) at 50 mg/ml concentrations (as a 0.5% carboxymethylcellulose formulation). The control rats received an equal amount of the vehicle ([…]). Blood samples were collected 2 hours after administration on day 6, for pharmokinetic analysis of the compounds. On day 6 the rats were sacrificed and the entire prostate and the individual lobes (e.g., the ventral, dorso-lateral, and anterior lobes) were removed and weighed to measure absolute weights. Relative weights of prostate and individual lobes were calculated by dividing the absolute weight by the total body weight of the […]. Relative weights of the entire prostate, the dorsal prostate, and the ventral prostate were calculated by dividing the absolute weight by the total weight of the mouse. The histomorphology of the prostate was also analyzed and compared to that of the control or untreated prostate.

SH rat prostate = test: 5 day systemic administration in male SH rats, prostate; format: in vivo; parameters: inhibition in vivo: dose or concentration left out as unconfirmed; conditions: for Prostate shrinkage: male SH rats, oral daily for 5 days at 50 mg/ml, day 6; for inhibition in vivo: Rattus norvegicus, po, 144 h, read-out: Prostate shrinkage
Experimental: as §2

H460 cells = test: Antiproliferation assay (Alamar Blue), H460 cells; format: cell-based
Experimental: To determine the effect of lonidamine and analogs thereof on cell proliferation, the antiproliferative activity of these compounds was tested in a multi-well Alamar Blue based assay (at 2 h and 3 days). Cell growth in the presence and absence of the test compound (compounds 1-22) was compared, as measured by a fluorescence plate reader at excitation 550 nm and emission 590 nm (see Biosource International Inc., Tech Application Notes, Use of Alamar Blue in the measurement of Cell Viability and Toxicity, Determining IC50). H460 cells (ATCC HTB-177 ([…]), 4,000 cells/well/200 μl) and LNCap cells (ATCC CRL-1740, 6,000 cells/well/200 μl) were seeded in a 96 well plate in RPMI medium (Invitrogen Corporation, Carlsbad, Calif.). After 24 hours, these plates were divided into 3 groups—Control group, 2 h treatment group and 3 day treatment group. In the 2 h treatment group, after 2 h the cells were rinsed to remove the test compound and incubated for 3 days, followed by staining with AlamarBlue. The cells in the 3 day treatment group were incubated for 3 days, followed by staining with AlamarBlue. In the Control group, AlamarBlue was added to the plate at (i) day 0 and (ii) day 3 and measured to establish the control reading.

[2] = 3 day treatment, read-out: GI50 H460 cell 3 days
[3] = read-out: GI50 H460 cell 2 hr, 2 h treatment then 3 days incubation
[4] = Homo sapiens, PWR-1E, 72 h, 3 day treatment
[5] = Homo sapiens, NCI-H460, 72 h, 3 day treatment

Row | SMILES | IC50 (PWR-1E cells; 3 day treatment) [µM] | IC50 (NCI-H460 cells; Homo sapiens, NCI-H460, 72 h) [µM] | IC50 (PWR-1E cells; Homo sapiens, PWR-1E, 72 h) [µM] | other results
1 | CN(C)C(=O)c1nn(Cc2ccc(Cl)cc2Cl)c2ccccc12 [Compound 49] | > 100 |  |  | 
2 | O=C(O)c1nn(Cc2cc(C(F)(F)F)ccc2Cl)c2ccccc12 [Compound 106] |  | 4 |  | 
3 | O=C(O)c1nn(Cc2ccc(Cl)nc2)c2ccccc12 [Compound 73] |  |  | > 300 | 
4 | O=C(O)c1nn(Cc2ccccc2O)c2ccccc12 [Compound 76] |  |  | 288 | 
5 | N#Cc1cc(Cl)ccc1Cn1nc(C(=O)O)c2ccccc21 [Compound 95] |  | 275 | 85 | 
6 | O=C(Nc1cccnc1)c1nn(Cc2ccc(Cl)cc2Cl)c2ccccc12 [Compound 51] |  |  |  | Testis shrinkage (testes): 2.2%; PK [1]: 0.45 µg/mL; Prostate shrinkage (SH rat prostate): 8.7%
7 | CONC(=O)c1nn(Cc2ccc(Cl)cc2Cl)c2ccccc12 [Compound 53] |  |  |  | Testis shrinkage (testes): 9.2%; PK [1]: 1 µg/mL; Prostate shrinkage (SH rat prostate): 6.9%
8 | O=C(O)c1nn(Cc2ccncc2)c2ccccc12 [Compound 86] |  | > 600 |  | 
9 | O=C(NCCO)c1nn(Cc2ccc(Cl)cc2Cl)c2ccccc12 [Compound 10] | 14 |  |  | GI50 (H460 cells; [2]): 50 µM; GI50 (H460 cells; [3]): 78 µM
10 | O=C(O)c1nn(Cc2cc3c(cc2Cl)OCO3)c2ccccc12 [Compound 69] |  |  | 145 | 
11 | Cc1ccc2c(c1)c(C(=O)NO)nn2Cc1ccc(Cl)cc1Cl [Compound 52] | 0.34 |  |  | 
12 | Cc1noc(C)c1Cn1nc(C(=O)O)c2ccccc21 [Compound 71] |  |  | > 300 | 
13 | O=C(O)c1nn(S(=O)(=O)c2ccc(Cl)cc2Cl)c2ccccc12 [Compound 104] | 19 |  |  | IC50 (NCI-H460 cells; 3 day treatment): 195 µM
14 | O=C(O)c1nn(C(=O)c2ccc(Cl)cc2Cl)c2ccccc12 [Compound 98] |  |  |  | IC50 (PWR-1E cells; [4]): 4 µM
15 | O=Cc1nn(Cc2ccc(Cl)cc2Cl)c2ccccc12 [Compound 61] |  |  | 1.5 | 
16 | O=C(O)c1cn(Cc2cc(Cl)ccc2Cl)c2ccccc12 [Compound 100] |  | 125 |  | 
17 | O=C(O)c1nn(Cc2cccnc2)c2ccccc12 [Compound 85] |  | > 600 |  | 
18 | OCc1nc(Cc2ccc(Cl)cc2Cl)n2ccccc12 [Compound 92] |  |  |  | IC50 (NCI-H460 cells; [5]): 43 µM; IC50 (PWR-1E cells; [4]): 11 µM
19 | O=C(O)c1cn(Cc2ccc(Cl)cc2Cl)c2ccccc12 [Compound 78] |  | 89 | 22 | inhibition in vivo (testes): 5.7%; inhibition in vivo (SH rat prostate): 10.1%
20 | O=C(O)c1nn(Cc2cnc(Cl)c(Cl)c2)c2ccccc12 [Compound 87] |  | 323 |  | 
21 | O=C(O)c1nn(Cc2ccc(O)cc2)c2ccccc12 [Compound 77] |  |  | > 100 | 
22 | O=C(Nc1ccccn1)c1nn(Cc2ccc(Cl)cc2Cl)c2ccccc12 [Compound 7] |  |  |  | GI50 (H460 cells; [2]): 20 µM; GI50 (H460 cells; [3]): > 400 µM
23 | O=C(OC1O[C@H](C(=O)O)[C@@H](O)[C@H](O)[C@H]1O)c1nn(Cc2ccc(Cl)cc2Cl)c2ccccc12 (some centres unmarked) [Compound 15] |  |  | 80 | GI50 (H460 cells; Homo sapiens, NCI-H460, 72 h, 3 day treatment, read-out: GI50 H460 cell 3 days): 316 µM; GI50 (H460 cells; Homo sapiens, NCI-H460, read-out: GI50 H460 cell 2 hr, 2 h treatment then 3 days incubation): > 400 µM
24 | O=C(O)c1nn(Cc2ccc(Cl)nc2)c2ccccc12 [Compound 94] |  | > 600 |  | 

Row | SMILES | IC50 (PWR-1E cells; 3 day treatment) [µM] | IC50 (NCI-H460 cells; Homo sapiens, NCI-H460, 72 h) [µM] | IC50 (PWR-1E cells; Homo sapiens, PWR-1E, 72 h) [µM] | other results
25 | COc1ccccc1Cn1nc(C(=O)O)c2ccccc21 [Compound 72] |  |  | 245 | 
26 | CONC(=O)c1nn(Cc2ccc(Cl)cc2Cl)c2ccc(C)cc12 [Compound 57] | 39 |  |  | 
27 | O=Cc1nc(Cc2ccc(Cl)cc2Cl)n2ccccc12 [Compound 88] |  |  |  | IC50 (NCI-H460 cells; [5]): 48 µM; IC50 (PWR-1E cells; [4]): 12 µM
28 | NNC(=O)c1nn(Cc2c(Cl)cccc2Cl)c2ccccc12 [Compound 44] | > 10 |  |  | 
29 | O=C(NC1CC1)c1nn(Cc2c(Cl)cccc2Cl)c2ccccc12 [Compound 46] | > 30 |  |  | 
30 | O=C(O)c1nn(Cc2ccc(Cl)c(Cl)c2)c2ccccc12 [Compound 82] |  | 128 | 36 | inhibition in vivo (testes): -1.1%; inhibition in vivo (SH rat prostate): 5%
31 | O=C(Nc1nccs1)c1nn(Cc2ccc(Cl)cc2Cl)c2ccccc12 [Compound 9] | > 100 |  |  | GI50 (H460 cells; [2]): > 400 µM; GI50 (H460 cells; [3]): > 400 µM
32 | O=C(c1nn(Cc2ccc(Cl)cc2Cl)c2ccccc12)N1CCOCC1 [Compound 48] | > 10 |  |  | Testis shrinkage (testes): 4.3%; Prostate shrinkage (SH rat prostate): 3.3%
33 | O=C(NO)c1nn(Cc2ccc(Cl)cc2Cl)c2ccc(F)cc12 [Compound 47] | 5.6 |  |  | 
34 | NC(=O)c1nn(Cc2c(Cl)cccc2Cl)c2ccccc12 [Compound 25] |  |  | > 100 | 
35 | O=C(O)c1nn(Cc2ccc3c(c2)OCO3)c2ccccc12 [Compound 74] |  | 290 | > 100 | 
36 | O=C(O)c1c2ccccc2nn1S(=O)(=O)c1ccc(Cl)cc1Cl [Compound 105] | 21 |  |  | IC50 (NCI-H460 cells; 3 day treatment): 182 µM
37 | O=C(Nc1ccc(F)c(F)c1)c1nn(Cc2ccc(Cl)cc2Cl)c2ccccc12 [Compound 8] | > 3 |  |  | GI50 (H460 cells; [2]): 316 µM; GI50 (H460 cells; [3]): > 400 µM
38 | CC(C)NC(=O)c1nn(Cc2ccccc2)c2ccccc12 [Compound 50] | 23 |  |  | 
39 | CNC(=O)c1nn(Cc2c(Cl)cccc2Cl)c2ccccc12 [Compound 37] | 36 |  |  | 
40 | O=C(O)c1nn(Cc2ccc(-c3ccccc3)cc2)c2ccccc12 [Compound 22] | 25 |  |  | GI50 (H460 cells; [2]): 158 µM; GI50 (H460 cells; [3]): > 400 µM
41 | O=C(O)c1nn(Cc2ccccc2Cl)c2ccccc12 [Compound 27] | 30 |  |  | 
42 | O=C(NCCN1CCOCC1)c1nn(Cc2c(Cl)cccc2Cl)c2ccccc12 [Compound 43] | 45 |  |  | 
43 | O=C(O)c1nn(Cc2cc(Cl)ccc2F)c2ccccc12 [Compound 103] |  | 219 | 132 | 
44 | CC(c1ccc(Cl)cc1Cl)n1nc(C(=O)O)c2ccccc21 (centres unmarked) [Compound 67] |  | 148 | 21 | inhibition in vivo (testes): 34.9%; inhibition in vivo (SH rat prostate): 18.2%
45 | O=C(O)c1nn(Cc2cc(Cl)ccc2Cl)c2ccccc12 [Compound 83] |  | 126 | 38 | inhibition in vivo (testes): 48%; inhibition in vivo (SH rat prostate): 31.7%
46 | O=C(O)c1nc(Cc2ccc(Cl)cc2Cl)n2ccccc12 [Compound 89] | 10 |  |  | IC50 (NCI-H460 cells; 3 day treatment): 41 µM
47 | Cc1cc(Cn2nc(C(=O)O)c3ccccc32)n(C)n1 [Compound 75] |  | > 180 | > 300 | 
48 | O=C(O)c1nn(Cc2ccccn2)c2ccccc12 [Compound 84] |  | > 600 |  | 
